Data on 3 molecules can be found in the NIST ThermoML archive (doi:10.1016/j.tca.2017.03.027).

A short description of data set [1]: Molar enthalpy of transition or fusion. The note with it: Crystal; DSC.
For data set [2] the following is noted: Crystal; DTA.

Numbers after ± are expanded uncertainties.

As for `CCCCCCCCCC(=O)O` [decanoic acid], the “Molar enthalpy of transition or fusion” value in data set [1] is 6.86 ± 0.311 kcal/mol. Moreover, in data set [2], the Normal melting temperature stood at 31.10 ± 4 °C.

As to `CCCCCCCCCCCCCCCCCC(=O)O` [octadecanoic acid], the “Molar enthalpy of transition or fusion” value in data set [1] was determined as 15.1 ± 0.669 kcal/mol. Further, the Normal melting temperature in data set [2] worked out at 69.00 ± 4 °C.

On to `CCCCCCCCCCCCCC(=O)O` [tetradecanoic acid], for which, in data set [1], the “Molar enthalpy of transition or fusion” value amounted to 10.2 ± 0.454 kcal/mol. Also, the Normal melting temperature in data set [2] was 53.70 ± 4 °C.
